In patent publication US12568972B2, “Pyridazinol compounds and derivatives, preparation methods, herbicidal compositions and applications thereof” (Qingdao Kingagroot Chemical Compound Co., Ltd., priority 2018, dated 2026):

Key:
Assay in all cases: Post-emergence test, weed control effect
Format in all cases: in vivo
Conditions in all cases: Dose 3000 g/ha, after 3 weeks
[1] = test system: Amaranthus retroflexus
Summary of the method: (§1)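 Scores use a 0 (no effect) to 10 (dead) scale of fresh-weight inhibition, assessed 3 weeks after spraying. Treatment was at the 2-3 leaf stage, 2-3 weeks post-sowing, using acetone/Tween-80/water solutions with 80% vegetable oil methyl ester synergist at 1500 g/ha.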

[2] = test system: Chenopodiaceae
Summary of the method: as §1

[3] = test system: Rorippa indica
Summary of the method: as §1

[4] = test system: Veronica polita
Summary of the method: as §1

Oc1cc(C(F)(F)F)nnc1-c1cncc(I)c1 [Compound 971]
10: weed control effect (activity level), Amaranthus retroflexus [1] | weed control effect (activity level), Chenopodiaceae [2] | weed control effect (activity level), Rorippa indica [3] | weed control effect (activity level), Veronica polita [4]

Oc1cc(C(F)(F)F)nnc1-c1cnccc1I [Compound 972]
10: weed control effect (activity level), Amaranthus retroflexus [1] | weed control effect (activity level), Chenopodiaceae [2] | weed control effect (activity level), Rorippa indica [3] | weed control effect (activity level), Veronica polita [4]

Cc1ncccc1-c1nnc(C(F)(F)F)cc1O [Compound 973]
10: weed control effect (activity level), Amaranthus retroflexus [1] | weed control effect (activity level), Chenopodiaceae [2] | weed control effect (activity level), Rorippa indica [3] | weed control effect (activity level), Veronica polita [4]

Cc1ccc(-c2nnc(C(F)(F)F)cc2O)cn1 [Compound 974]
10: weed control effect (activity level), Amaranthus retroflexus [1] | weed control effect (activity level), Chenopodiaceae [2] | weed control effect (activity level), Rorippa indica [3] | weed control effect (activity level), Veronica polita [4]

Cc1ccncc1-c1nnc(C(F)(F)F)cc1O [Compound 975]
10: weed control effect (activity level), Amaranthus retroflexus [1] | weed control effect (activity level), Chenopodiaceae [2] | weed control effect (activity level), Rorippa indica [3] | weed control effect (activity level), Veronica polita [4]

Oc1cc(C(F)(F)F)nnc1-c1cccnc1C(F)(F)F [Compound 976]
10: weed control effect (activity level), Amaranthus retroflexus [1] | weed control effect (activity level), Chenopodiaceae [2] | weed control effect (activity level), Rorippa indica [3] | weed control effect (activity level), Veronica polita [4]

Oc1cc(C(F)(F)F)nnc1-c1cncc(C(F)(F)F)c1 [Compound 977]
10: weed control effect (activity level), Amaranthus retroflexus [1] | weed control effect (activity level), Chenopodiaceae [2] | weed control effect (activity level), Rorippa indica [3] | weed control effect (activity level), Veronica polita [4]

Oc1cc(C(F)(F)F)nnc1-c1cnccc1C(F)(F)F [Compound 978]
10: weed control effect (activity level), Amaranthus retroflexus [1] | weed control effect (activity level), Chenopodiaceae [2] | weed control effect (activity level), Rorippa indica [3] | weed control effect (activity level), Veronica polita [4]

N#Cc1ncccc1-c1nnc(C(F)(F)F)cc1O [Compound 979]
10: weed control effect (activity level), Amaranthus retroflexus [1] | weed control effect (activity level), Chenopodiaceae [2] | weed control effect (activity level), Rorippa indica [3] | weed control effect (activity level), Veronica polita [4]

N#Cc1ccncc1-c1nnc(C(F)(F)F)cc1O [Compound 980]
10: weed control effect (activity level), Amaranthus retroflexus [1] | weed control effect (activity level), Chenopodiaceae [2] | weed control effect (activity level), Rorippa indica [3] | weed control effect (activity level), Veronica polita [4]

N#Cc1ccc(-c2nnc(C(F)(F)F)cc2O)cn1 [Compound 983]
10: weed control effect (activity level), Amaranthus retroflexus [1] | weed control effect (activity level), Chenopodiaceae [2] | weed control effect (activity level), Rorippa indica [3] | weed control effect (activity level), Veronica polita [4]

N#Cc1cncc(-c2nnc(C(F)(F)F)cc2O)c1 [Compound 984]
10: weed control effect (activity level), Amaranthus retroflexus [1] | weed control effect (activity level), Chenopodiaceae [2] | weed control effect (activity level), Rorippa indica [3] | weed control effect (activity level), Veronica polita [4]

Oc1cc(C(F)(F)F)nnc1-c1cc(F)cnc1F [Compound 986]
10: weed control effect (activity level), Amaranthus retroflexus [1] | weed control effect (activity level), Chenopodiaceae [2] | weed control effect (activity level), Rorippa indica [3] | weed control effect (activity level), Veronica polita [4]

Oc1cc(C(F)(F)F)nnc1-c1c(F)ccnc1F [Compound 987]
10: weed control effect (activity level), Amaranthus retroflexus [1] | weed control effect (activity level), Chenopodiaceae [2] | weed control effect (activity level), Rorippa indica [3] | weed control effect (activity level), Veronica polita [4]

Oc1cc(C(F)(F)F)nnc1-c1cnc(F)c(F)c1 [Compound 988]
10: weed control effect (activity level), Amaranthus retroflexus [1] | weed control effect (activity level), Chenopodiaceae [2] | weed control effect (activity level), Rorippa indica [3] | weed control effect (activity level), Veronica polita [4]

Oc1cc(C(F)(F)F)nnc1-c1cnc(F)cc1F [Compound 989]
10: weed control effect (activity level), Amaranthus retroflexus [1] | weed control effect (activity level), Chenopodiaceae [2] | weed control effect (activity level), Rorippa indica [3] | weed control effect (activity level), Veronica polita [4]

Oc1cc(C(F)(F)F)nnc1-c1cncc(F)c1F [Compound 990]
10: weed control effect (activity level), Amaranthus retroflexus [1] | weed control effect (activity level), Chenopodiaceae [2] | weed control effect (activity level), Rorippa indica [3] | weed control effect (activity level), Veronica polita [4]

Oc1cc(C(F)(F)F)nnc1-c1ccc(Cl)nc1Cl [Compound 991]
10: weed control effect (activity level), Amaranthus retroflexus [1] | weed control effect (activity level), Chenopodiaceae [2] | weed control effect (activity level), Rorippa indica [3] | weed control effect (activity level), Veronica polita [4]

Oc1cc(C(F)(F)F)nnc1-c1cc(Cl)cnc1Cl [Compound 992]
10: weed control effect (activity level), Amaranthus retroflexus [1] | weed control effect (activity level), Chenopodiaceae [2] | weed control effect (activity level), Rorippa indica [3] | weed control effect (activity level), Veronica polita [4]

Oc1cc(C(F)(F)F)nnc1-c1c(Cl)ccnc1Cl [Compound 993]
10: weed control effect (activity level), Amaranthus retroflexus [1] | weed control effect (activity level), Chenopodiaceae [2] | weed control effect (activity level), Rorippa indica [3] | weed control effect (activity level), Veronica polita [4]

Oc1cc(C(F)(F)F)nnc1-c1cnc(Cl)c(Cl)c1 [Compound 994]
10: weed control effect (activity level), Amaranthus retroflexus [1] | weed control effect (activity level), Chenopodiaceae [2] | weed control effect (activity level), Rorippa indica [3] | weed control effect (activity level), Veronica polita [4]

Oc1cc(C(F)(F)F)nnc1-c1cnc(Cl)cc1Cl [Compound 995]
10: weed control effect (activity level), Amaranthus retroflexus [1] | weed control effect (activity level), Chenopodiaceae [2] | weed control effect (activity level), Rorippa indica [3] | weed control effect (activity level), Veronica polita [4]

Oc1cc(C(F)(F)F)nnc1-c1cncc(Cl)c1Cl [Compound 996]
10: weed control effect (activity level), Amaranthus retroflexus [1] | weed control effect (activity level), Chenopodiaceae [2] | weed control effect (activity level), Rorippa indica [3] | weed control effect (activity level), Veronica polita [4]

Oc1cc(C(F)(F)F)nnc1-c1ccc(Cl)nc1F [Compound 997]
10: weed control effect (activity level), Amaranthus retroflexus [1] | weed control effect (activity level), Chenopodiaceae [2] | weed control effect (activity level), Rorippa indica [3] | weed control effect (activity level), Veronica polita [4]

Oc1cc(C(F)(F)F)nnc1-c1cc(Cl)cnc1F [Compound 998]
10: weed control effect (activity level), Amaranthus retroflexus [1] | weed control effect (activity level), Chenopodiaceae [2] | weed control effect (activity level), Rorippa indica [3] | weed control effect (activity level), Veronica polita [4]

Oc1cc(C(F)(F)F)nnc1-c1c(Cl)ccnc1F [Compound 999]
10: weed control effect (activity level), Amaranthus retroflexus [1] | weed control effect (activity level), Chenopodiaceae [2] | weed control effect (activity level), Rorippa indica [3] | weed control effect (activity level), Veronica polita [4]

Oc1cc(C(F)(F)F)nnc1-c1cnc(F)cc1Cl [Compound 1001]
10: weed control effect (activity level), Amaranthus retroflexus [1] | weed control effect (activity level), Chenopodiaceae [2] | weed control effect (activity level), Rorippa indica [3] | weed control effect (activity level), Veronica polita [4]

Oc1cc(C(F)(F)F)nnc1-c1cncc(F)c1Cl [Compound 1002]
10: weed control effect (activity level), Amaranthus retroflexus [1] | weed control effect (activity level), Chenopodiaceae [2] | weed control effect (activity level), Rorippa indica [3] | weed control effect (activity level), Veronica polita [4]

Oc1cc(C(F)(F)F)nnc1-c1ccc(F)nc1Cl [Compound 1003]
10: weed control effect (activity level), Amaranthus retroflexus [1] | weed control effect (activity level), Chenopodiaceae [2] | weed control effect (activity level), Rorippa indica [3] | weed control effect (activity level), Veronica polita [4]

Oc1cc(C(F)(F)F)nnc1-c1cc(F)cnc1Cl [Compound 1004]
10: weed control effect (activity level), Amaranthus retroflexus [1] | weed control effect (activity level), Chenopodiaceae [2] | weed control effect (activity level), Rorippa indica [3] | weed control effect (activity level), Veronica polita [4]

Oc1cc(C(F)(F)F)nnc1-c1c(F)ccnc1Cl [Compound 1005]
10: weed control effect (activity level), Amaranthus retroflexus [1] | weed control effect (activity level), Chenopodiaceae [2] | weed control effect (activity level), Rorippa indica [3] | weed control effect (activity level), Veronica polita [4]
